Target: T1, Platelet-activating factor acetylhydrolase (Homo sapiens, UniProt Q13093)
T1 sequence (Q13093 whole entry): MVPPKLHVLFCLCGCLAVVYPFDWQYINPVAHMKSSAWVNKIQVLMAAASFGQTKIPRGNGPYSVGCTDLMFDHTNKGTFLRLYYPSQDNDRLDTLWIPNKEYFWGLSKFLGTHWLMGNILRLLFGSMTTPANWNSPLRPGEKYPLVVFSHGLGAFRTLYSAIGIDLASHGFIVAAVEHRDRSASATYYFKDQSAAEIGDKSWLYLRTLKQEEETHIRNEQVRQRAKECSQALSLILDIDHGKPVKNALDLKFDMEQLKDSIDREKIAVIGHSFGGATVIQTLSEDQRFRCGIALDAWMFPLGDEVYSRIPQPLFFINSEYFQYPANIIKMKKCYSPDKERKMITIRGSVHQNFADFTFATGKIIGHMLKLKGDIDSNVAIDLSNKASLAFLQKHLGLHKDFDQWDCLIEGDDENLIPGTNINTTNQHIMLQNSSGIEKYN
Experiment: Inhibitory activity against recombinant human Lp-PLA2 (Lp-PLA2).

SMILES | IC50 [nM]
Cn1cc(Cc2cn(CCCC(=O)NCc3ccc(-c4ccccc4)cc3)c(SCc3ccc(F)cc3)nc2=O)cn1 | 5
O=C(Cn1cc(Cc2cncnc2)c(=O)nc1SCc1ccc(F)cc1)NCc1ccc(-c2ccccc2)cc1 | 4
COc1ncc(Cc2cn(CCCC(=O)NCc3ccc(-c4ccccc4)cc3)c(SCc3ccc(F)cc3)nc2=O)cn1 | 4
COc1ncc(Cc2cn(CC(=O)NCc3ccc(-c4ccc(Cl)cc4)cc3)c(SCc3ccc(F)cc3)nc2=O)cn1 | 0.5
CN(Cc1ccc(-c2ccc(Cl)cc2)cc1)C(=O)Cn1cc(Cc2cnc(N3CCOCC3)nc2)c(=O)nc1SCc1ccc(F)cc1 | 1
CCn1cc(Cc2cn(CC(=O)N(C)Cc3ccc(-c4ccc(Cl)cc4)cc3)c(SCc3ccc(F)cc3)nc2=O)cnc1=O | 0.5
CN(Cc1ccc(-c2ccc(Cl)cc2)cc1)C(=O)Cn1cc(Cc2cnc(C(F)(F)F)nc2)c(=O)nc1SCc1ccc(F)cc1 | 5
O=C(Cn1cc(Cc2cncnc2)c(=O)nc1SCc1ccc(F)cc1)NCc1ccccc1-c1ccccc1 | 194
COc1ncc(Cc2cn(CCCC(=O)NCc3ccc(-c4ccc(Cl)cc4)cc3)c(SCc3ccc(F)cc3)nc2=O)cn1 | 4
COc1ncc(Cc2cn(CC(=O)N(C)Cc3ccc(-c4ccc(F)cc4)cc3)c(SCc3ccc(F)cc3)nc2=O)cn1 | 0.6
Cn1cc(Cc2cn(CCCC(=O)NCc3ccc(-c4ccc(F)cc4)cc3)c(SCc3ccc(F)cc3)nc2=O)cn1 | 4
CN(Cc1ccc(-c2ccccc2)cc1)C(=O)Cn1cc(Cc2cncnc2)c(=O)nc1SCc1ccc(F)cc1 | 8
O=C(Cn1cc(Cc2cncnc2)c(=O)nc1SCc1ccc(F)cc1)NCc1cccc(-c2ccccc2)c1 | 24
COc1ncc(Cc2cn(CC(=O)N(C)Cc3ccc(-c4ccc(C(F)(F)F)cc4)cc3)c(SCc3ccc(F)cc3)nc2=O)cn1 | 0.2
CN(Cc1ccc(-c2ccc(F)cc2)cc1)C(=O)CCCn1cc(Cc2cnn(C)c2)c(=O)nc1SCc1ccc(F)cc1 | 8
COc1ncc(Cc2cn(CCCC(=O)N(C)Cc3ccc(-c4ccc(Cl)cc4)cc3)c(SCc3ccc(F)cc3)nc2=O)cn1 | 5
CN(Cc1ccc(-c2ccc(Cl)cc2)cc1)C(=O)Cn1cc(Cc2cnc(N(C)C)nc2)c(=O)nc1SCc1ccc(F)cc1 | 0.8
